Results: paper PMC8945123 (ACS Omega, 2022)
Several values for one entry are separate records, joined by “and”; a condition that tells them apart may be missing. Identical values can stand only once. Entries after “also recorded” stand apart in the source; their conditions may differ. Like-named read-outs stand apart in the source and are kept apart here.

Experiments:
[1] = biological target: T1, hMAO-B (Homo sapiens, UniProt P27338); test: In vitro inhibition of recombinant human MAO-B, fluorometric; type: biochemical
T1 sequence (P27338 1-520): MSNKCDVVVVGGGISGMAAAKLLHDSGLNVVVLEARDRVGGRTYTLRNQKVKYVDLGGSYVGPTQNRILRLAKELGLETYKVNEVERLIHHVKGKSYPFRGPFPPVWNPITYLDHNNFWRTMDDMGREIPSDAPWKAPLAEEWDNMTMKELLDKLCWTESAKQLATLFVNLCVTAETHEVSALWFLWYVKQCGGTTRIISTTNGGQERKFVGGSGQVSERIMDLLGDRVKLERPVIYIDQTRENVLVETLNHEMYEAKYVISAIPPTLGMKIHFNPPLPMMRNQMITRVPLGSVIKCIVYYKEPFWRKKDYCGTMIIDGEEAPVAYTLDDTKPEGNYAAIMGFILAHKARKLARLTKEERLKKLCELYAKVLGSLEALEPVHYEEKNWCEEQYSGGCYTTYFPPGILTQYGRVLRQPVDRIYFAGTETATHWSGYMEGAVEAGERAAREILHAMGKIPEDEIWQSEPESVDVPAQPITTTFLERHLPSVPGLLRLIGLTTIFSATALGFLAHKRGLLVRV

[2] = biological target: eeAChE (Electrophorus electricus, UniProt O42275); test: In vitro eeAChE inhibition, Ellman's method; type: biochemical; conditions: for IC50: mean ± SEM (n = 3)
[3] = biological target: eqBChE (Equus caballus, UniProt P81908); test: In vitro eqBChE inhibition, Ellman's method; type: biochemical
[4] = biological target: T2, hMAO-A (Homo sapiens, UniProt P21397); test: In vitro inhibition of recombinant human MAO-A, fluorometric; type: biochemical; conditions: for IC50 (μM) ± SEM hMAO-A: mean ± SEM (n = 3)
T2 sequence (P21397 1-527): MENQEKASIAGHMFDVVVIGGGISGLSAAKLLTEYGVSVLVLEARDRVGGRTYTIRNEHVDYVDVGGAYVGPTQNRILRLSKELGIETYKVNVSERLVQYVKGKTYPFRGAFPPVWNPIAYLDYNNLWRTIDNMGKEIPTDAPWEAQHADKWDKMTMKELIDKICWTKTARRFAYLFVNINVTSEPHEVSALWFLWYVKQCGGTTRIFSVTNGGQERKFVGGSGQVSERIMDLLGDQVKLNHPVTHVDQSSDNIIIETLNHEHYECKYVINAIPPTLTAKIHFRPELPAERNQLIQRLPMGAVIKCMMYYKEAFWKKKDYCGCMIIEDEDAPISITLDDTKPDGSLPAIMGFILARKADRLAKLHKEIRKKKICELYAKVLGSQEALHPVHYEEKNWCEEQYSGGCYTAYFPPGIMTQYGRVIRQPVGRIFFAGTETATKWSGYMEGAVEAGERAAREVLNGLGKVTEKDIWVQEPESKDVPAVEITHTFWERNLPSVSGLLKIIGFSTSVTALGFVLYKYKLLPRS

[5] = tested on: animals; test: Acute oral toxicity in animals; type: in vivo; conditions: doses from 50 to 2000 mg/kg body weight, eight animals per group
[6] = Neurotoxicity MTT assay on neuroblastoma SH-SY5Y cells; type: cell-based; conditions: human
[7] = PAMPA-BBB permeation assay; conditions: prediction of BBB penetration from Pe
[8] = biological target: acetylcholinesterase (Electrophorus electricus, UniProt O42275); test: Kinetic analysis of AChE inhibition; type: biochemical
acetylcholinesterase, sequence (O42275 24-633): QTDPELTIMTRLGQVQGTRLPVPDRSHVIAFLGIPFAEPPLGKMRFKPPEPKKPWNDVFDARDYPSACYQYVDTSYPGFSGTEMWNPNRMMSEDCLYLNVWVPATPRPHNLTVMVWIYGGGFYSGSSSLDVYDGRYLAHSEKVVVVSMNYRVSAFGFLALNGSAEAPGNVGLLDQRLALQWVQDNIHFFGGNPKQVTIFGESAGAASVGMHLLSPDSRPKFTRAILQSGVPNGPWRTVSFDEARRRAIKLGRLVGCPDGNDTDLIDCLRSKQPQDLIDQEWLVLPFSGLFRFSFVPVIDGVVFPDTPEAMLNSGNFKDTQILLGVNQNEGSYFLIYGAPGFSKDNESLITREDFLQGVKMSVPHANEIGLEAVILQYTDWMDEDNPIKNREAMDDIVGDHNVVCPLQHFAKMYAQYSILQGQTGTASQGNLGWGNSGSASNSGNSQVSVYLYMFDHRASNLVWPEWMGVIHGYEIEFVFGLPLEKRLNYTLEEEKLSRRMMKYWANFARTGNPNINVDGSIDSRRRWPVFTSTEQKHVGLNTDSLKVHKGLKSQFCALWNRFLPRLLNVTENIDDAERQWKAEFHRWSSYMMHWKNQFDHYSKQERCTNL

eqBChE, sequence (P81908 whole entry): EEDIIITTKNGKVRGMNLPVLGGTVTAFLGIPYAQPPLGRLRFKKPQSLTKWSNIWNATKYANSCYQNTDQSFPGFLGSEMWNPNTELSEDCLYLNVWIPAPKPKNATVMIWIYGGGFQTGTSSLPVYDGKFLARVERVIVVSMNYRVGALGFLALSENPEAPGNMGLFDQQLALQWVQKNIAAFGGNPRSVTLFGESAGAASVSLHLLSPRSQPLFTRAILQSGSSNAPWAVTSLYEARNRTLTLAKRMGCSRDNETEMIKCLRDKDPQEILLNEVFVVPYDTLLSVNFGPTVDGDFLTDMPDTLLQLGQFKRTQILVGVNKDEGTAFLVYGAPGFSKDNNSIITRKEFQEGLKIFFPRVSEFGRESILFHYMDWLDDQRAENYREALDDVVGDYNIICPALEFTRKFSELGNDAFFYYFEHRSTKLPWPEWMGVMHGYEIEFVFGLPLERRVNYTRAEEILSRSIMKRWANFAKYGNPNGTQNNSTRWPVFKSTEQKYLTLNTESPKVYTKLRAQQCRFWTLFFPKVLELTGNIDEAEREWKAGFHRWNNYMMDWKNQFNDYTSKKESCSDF
eeAChE, sequence (O42275 24-633): as the sequence (O42275 24-633) above

| SMILES | IC50 [1] | SI = selectivity index = IC50 of hMAO-A/IC50 of hMAO-B [1] | SI = selectivity index = IC50 of eqBChE/IC50 of eeAChE [2] | IC50 ([2]; IC50 (μM) ± SEM eeAChE) | IC50 [3] | IC50 [4] | prediction (PAMPA-BBB) (CNS+, CNS–) [7] | further results |
| --- | --- | --- | --- | --- | --- | --- | --- | --- |
| CC1(C)CC(=O)C2=C(C1)N=c1s/c(=C\c3c[nH]c4ccccc34)c(=O)n1C2c1c[nH]c2ccccc12 (centres unmarked) [Compound 26] | 0.24 ± 0.01 µM | 2.4 | 3.1 | 6.21 ± 0.16 µM | 19.3 ± 1.14 µM | 0.57 ± 0.08 µM | – | – |
| O=C1CC(c2ccccc2)CC2=C1C(c1c[nH]c3ccccc13)n1c(s/c(=C\c3c[nH]c4ccccc34)c1=O)=N2 (centres unmarked) [Compound 27] | 0.47 ± 0.01 µM | 19.9 | 14.1 | – | 13.7 ± 1.21 µM | 9.36 ± 1.01 µM | – | IC50 ([2]; read-out: IC50 (μM) ± SEM eeAChE): 0.97 ± 0.1 µM |
| COc1ccc(C2CC(=O)C3=C(C2)N=c2s/c(=C\c4c[nH]c5ccccc45)c(=O)n2C3c2c[nH]c3ccccc23)cc1 (centres unmarked) [Compound 28] | 0.31 ± 0.01 µM | 119.2 | 11.8 | 0.89 ± 0.1 µM | 10.5 ± 1.09 µM | 36.9 ± 1.22 µM | – | – |
| O=C1CCCC2=C1C(c1c[nH]c3ccccc13)n1c(s/c(=C\c3ccc(OCc4ccccc4)cc3)c1=O)=N2 (centres unmarked) [Compound 30] | 0.37 ± 0.01 µM | 1.3 | 1.9 | 4.67 ± 0.29 µM | 8.97 ± 0.77 µM | 0.48 ± 0.03 µM | – | acute toxicity (survival, clinical signs) [5]: All animals were found alive |
| CC1(C)CC(=O)C2=C(C1)N=c1s/c(=C\c3ccc(OCc4ccccc4)cc3)c(=O)n1C2c1c[nH]c2ccccc12 (centres unmarked) [Compound 31] | 0.38 ± 0.01 µM | 1.6 | 3.7 | 3.71 ± 0.11 µM | 13.9 ± 0.99 µM | 0.63 ± 0.04 µM | – | – |
| O=C1CC(c2ccccc2)CC2=C1C(c1c[nH]c3ccccc13)n1c(s/c(=C\c3ccc(OCc4ccccc4)cc3)c1=O)=N2 (centres unmarked) [Compound 32] | 0.81 ± 0.01 µM | 13.9 | 1.9 | 0.86 ± 0.14 µM | 1.7 ± 0.11 µM | 11.2 ± 1.3 µM | – | – |
| COc1ccc(C2CC(=O)C3=C(C2)N=c2s/c(=C\c4ccc(OCc5ccccc5)cc4)c(=O)n2C3c2c[nH]c3ccccc23)cc1 (centres unmarked) [Compound 33] | 0.67 ± 0.01 µM | 72.2 | 1.3 | 0.79 ± 0.09 µM | 1.01 ± 0.06 µM | 48.4 ± 2.28 µM | – | – |
| O=C1CCCC2=C1C(c1c[nH]c3ccccc13)n1c(s/c(=C\c3ccc(OCCNCCc4c[nH]c5ccccc45)cc3)c1=O)=N2 (centres unmarked) [Compound 34] | 0.28 ± 0.01 µM | 5.3 | 3.7 | 0.12 ± 0.01 µM | 0.44 ± 0.01 µM | 1.5 ± 0.01 µM | – | – |
| CC1(C)CC(=O)C2=C(C1)N=c1s/c(=C\c3ccc(OCCNCCc4c[nH]c5ccccc45)cc3)c(=O)n1C2c1c[nH]c2ccccc12 (centres unmarked) [Compound 35] | 0.33 ± 0.01 µM | 5.8 | 15.0 | 0.04 µM and 0.042 µM | 0.63 ± 0.07 µM | 1.93 ± 0.01 µM | CNS+ (‘CNS+’ (prediction of high BBB permeation); Pe (10^–6 cm/s) > 4.39) | acute toxicity (survival, clinical signs) [5]: All animals were found alive; viability at 1 µM [6]: 98.9 ± 1.23%; viability at 10 µM [6]: 95.2 ± 1.54%; viability at 20 µM [6]: 94.9 ± 1.01%; viability at 40 µM [6]: 91.6 ± 1.59%; Ki [8]: 0.012 µM; type of inhibition ([8]; Lineweaver–Burke double reciprocal plot): mixed inhibition mode; also recorded: mixed-type inhibition |
| O=C1CC(c2ccccc2)CC2=C1C(c1c[nH]c3ccccc13)n1c(s/c(=C\c3ccc(OCCNCCc4c[nH]c5ccccc45)cc3)c1=O)=N2 (centres unmarked) [Compound 36] | 0.1 ± 0.01 µM | – | 17.2 | 0.081 ± 0.03 µM | 1.39 ± 0.06 µM | – | – | IC50 (μM) ± SEM hMAO-A [4]: not able to show MAO-A inhibition activity at tested concentration |
| COc1ccc(C2CC(=O)C3=C(C2)N=c2s/c(=C\c4ccc(OCCNCCc5c[nH]c6ccccc56)cc4)c(=O)n2C3c2c[nH]c3ccccc23)cc1 (centres unmarked) [Compound 37] | 0.14 ± 0.01 µM | – | 14.2 | 0.07 µM and 0.069 µM | 0.98 ± 0.11 µM | – | CNS+ (‘CNS+’ (prediction of high BBB permeation); Pe (10^–6 cm/s) > 4.39) | acute toxicity (survival, clinical signs) [5]: All animals were found alive; viability at 1 µM [6]: 96.1 ± 0.98%; viability at 10 µM [6]: 92.1 ± 1.09%; viability at 20 µM [6]: 90.33 ± 0.83%; viability at 40 µM [6]: 88.2 ± 1.55%; IC50 (μM) ± SEM hMAO-A [4]: not able to show MAO-A inhibition activity at tested concentration |
| Cc1nnc2n1-c1ccc(Cl)cc1C(c1ccccc1)=NC2 [alprazolam] | – | – | – | – | – | – | CNS+ (‘CNS+’ (prediction of high BBB permeation); Pe (10^–6 cm/s) > 4.39) | – |
| NCCc1ccc(O)c(O)c1 [dopamine] | – | – | – | – | – | – | CNS- (“CNS-” (prediction of low BBB permeation); Pe (10^–6 cm/s) < 1.78) | – |
| CCn1cc(C(=O)O)c(=O)c2cc(F)c(N3CCNC(C)C3)c(F)c21 (centres unmarked) [lomefloxacin] | – | – | – | – | – | – | CNS- (“CNS-” (prediction of low BBB permeation); Pe (10^–6 cm/s) < 1.78) | – |
| CC(=O)[C@H]1CC[C@H]2[C@@H]3CCC4=CC(=O)CC[C@]4(C)[C@H]3CC[C@]12C [progesterone] | – | – | – | – | – | – | CNS+ (‘CNS+’ (prediction of high BBB permeation); Pe (10^–6 cm/s) > 4.39) | – |
